Laboratory results: patent US20120282266A1, “ANTI-NEOPLASTIC USES OF ARTEMIN ANTAGONISTS” (AUCKLAND UNISERVICES LIMITED, priority 2009, published 2012)

Assays:
ARTN = experiment: Western blot for ARTN protein expression in BT549 and MDA-MB-231 cell pairs; format: cell-based, human; conditions: BT549 wild type cells, with paclitaxel vs without paclitaxel
Experimental: Western blot analysis was performed as described previously (Liu and Lobie, 2007) using the following antibodies: goat anti-artemin polyclonal antibody (R&D systems, Minneapolis, Minn.) and mouse anti-β-Actin monoclonal antibody (Sigma, St Louis, Mo.).
Western blot analysis was performed as described above in Example 1.
Reagents, Western blot analysis, and cell function and viability assays were all done as described above in Example 2.

BT549 PTX Res cells = experiment: Cell function assays (monolayer viability, soft agar colony formation, 3D matrigel growth), BT549-PTX Res; format: cell-based
Experimental: (§1) For soft agar colony formation assay, cells were cultured in 96-well plates first covered with a layer of agar (0.5%). Cells were grown in medium containing 10% FBS. 5×10^3 cells were seeded into 100 μl 0.35% agarose and onto the 0.5% agarose base layer. 100 μl serum-supplemented medium containing drug or antibody was added on the top and changed every 3 days. The plates were incubated at 37° C. in a humidified incubator. After 10 days, alarmarBlue® was added (1:10 volume reagent, Invitrogen) and incubated at 37° C. for 4 hours, followed by measurement of fluorescence with excitation wavelength at 530 nm and emission wavelength at 590 nm.
For the 3D Matrigel™ culture, monolayer grown cells were harvested by trypsinization, taken up in the complete medium, and separated into single-cell suspension by several passages through a Pasteur pipette. After this, 50 μl complete medium containing 5,000 cells was added to 150 μl of growth factor reduced Matrigel™ (Becton Dickinson, Bedford, Mass.) diluted 1:1 with complete media with 20% FBS. […] Organoid formation was counted in randomly chosen fields with light microscopy. […]
Cell viability, soft agar colony formation assay and 3D matrigel growth assays were performed as described above in Example 1. For the cell viability assay, 3000 cells were seeded into 100 ul media(2% FBS) and every 24 h viability was determined.

[1] = system: TAMS cells (tamoxifen sensitive MCF-7); experiment: Cell number growth assay in estrogen free medium, TAMS cells; format: cell-based, human; conditions: 1 μM tamoxifen, 7 days
Experimental: (§2) For estrogen-free cell culture, MCF-7 cells were cultured in phenol red free RPMI-1640 supplemented with 10% dextran coated charcoal stripped fetal bovine serum (CS-FBS) for 3 days before estrogen or antiestrogen treatment. The tamoxifen resistant (TAMR) cell line was established as described by Shaw et al. (2006). Briefly, the parental MCF-7 cells were continuously exposed for 6 months to 1 μM tamoxifen in phenol red free RPMI 1640 medium containing 10% CS-FBS until the cells developed resistance to the growth inhibitory effect of tamoxifen. MCF-7 cells sensitive to tamoxifen, cultured in the same medium without tamoxifen, were designated as tamoxifen sensitive (TAMS) cells. Cells were seeded onto 6-well plates at a density of 5×10^4 cells per well, in triplicate, in 3 ml of complete medium containing 10% or 0.2% FBS. Cells were cultured under these conditions for up to 10 days with medium changed every other day until harvesting. To compare the cell proliferation rate, the total cell number in each well was quantified with a haemocytometer every 2 days. Cell viability was assessed by using trypan blue.

[2] = system: TAMR cells (tamoxifen resistant MCF-7); experiment: Cell number growth assay in estrogen free medium, TAMR cells; format: cell-based, human; conditions: 1 μM tamoxifen, 7 days
Experimental: as §2

[3] = system: TAMR cells (tamoxifen resistant MCF-7); experiment: Soft agar colony formation (anchorage independent growth), TAMR cells; format: cell-based, human; conditions: 1 μM tamoxifen alone, 10 days
Experimental: as §1
To perform soft agar colony formation assays, 50 μl of 0.5% agarose in serum containing medium was plated onto each well of 96-well flat-bottom microplates, as a base agar layer. Next, 5×10^3 cells in a […] mixture of 0.35% agarose in serum containing medium were plated onto the base layer. Subsequently, 100 μl of the medium was added to prevent drying of the agarose gels. For antibody treatment, the antibodies at the indicated concentrations were added into the top agar layer and the culture medium to ensure the complete exposure of cells to antibodies. […] The plate was shaken briefly and then read at 595 nm (test wavelength) and 690 nm (reference wavelength) using the Synergy™ 2 Multi-Mode Microplate Reader (BioTek instruments, Inc., Vermont, USA).

artemin = experiment: Artemin expression by semi-quantitative RT-PCR and Western blot in TAMS/TAMR cells; format: cell-based, human; conditions: 1 μM tamoxifen, 72 hours
Experimental: Total RNA was isolated from cultured cells with Trizol reagent (Invitrogen) at 1 ml/10 cm2 according to the manufacturer's instructions. RNA was resuspended in diethyl pyrocarbonate (DEPC)-treated nuclease-free water. RNA samples were further treated with DNase I for 30 min at 37° C. The reaction was stopped by addition of 25 mM EDTA and incubation at 65° C. for 15 min. RNA samples were then purified by extraction in phenol/chloroform (pH 5.2, phenol:chloroform:isoamyl alcohol at 25:24:1) followed by an additional chloroform extraction and ethanol precipitation. Quantification and purity of the RNA was assessed by A260/A280 absorption, and RNA quality was assessed by agarose gel electrophoresis. RNA samples with ratios of A260/A280 greater than 1.6 were stored at −80° C. for further analysis.
One-step reverse transcription (RT)-PCR kit (Qiagen) was used to determine the presence of artemin transcript using a pair of primers: 5′-[…]-3 (forward; SEQ ID NO: 41) and 5′-[…]-3′ (reverse; SEQ ID NO: 42). For RT-PCR, the following procedure was employed. To start, 1 μg of total RNA was diluted to 0.1 μg/μl to minimize the variation of sample handling. This dilution was treated by DNase I for 15 min, followed by inactivation of DNase by adding EDTA to 5 mM and heating to 70° C. for 15 min. […]

## CC(=O)O[C@H]1C(=O)[C@@]2(C)[C@H]([C@H](OC(=O)c3ccccc3)[C@]3(O)C[C@H](OC(=O)[C@H](O)[C@@H](NC(=O)c4ccccc4)c4ccccc4)C(C)=C1C3(C)C)[C@]1(OC(C)=O)CO[C@@H]1C[C@@H]2O [paclitaxel]
ARTN
  ARTN expression: increased ARTN expression
BT549 PTX Res cells; BT549-PTX Res vs parental BT549
  difference in sensitivity to paclitaxel, resistant subline vs parental line: ~2 fold
BT549 PTX Res cells; paclitaxel resistant cells compared to paclitaxel sensitive cells
  sensitivity to paclitaxel in monolayer proliferation, colony formation in soft agar and 3D matrigel growth: less sensitivity to paclitaxel

## CC/C(=C(\c1ccccc1)c1ccc(OCCN(C)C)cc1)c1ccccc1 [tamoxifen]
[1]
  growth of TAMS cells: retained the response to E2 and tamoxifen sensitivity
[2]
  growth of TAMR cells: loss of response to E2 and of tamoxifen sensitivity
[3]
  colony formation in soft agar: did not affect colony formation
artemin; TAMR cells
  artemin expression (mRNA and protein): retained elevated artemin expression
artemin; TAMS cells
  artemin expression (mRNA and protein): markedly abrogated artemin expression
